Literature values in patent US20160304829A1, “Automated Superparamagnetic Particle Handling System” (LIFE TECHNOLOGIES AS, priority 2006, published 2016).

Biological target: streptavidin (Streptomyces avidinii, UniProt P22629)
Details: Piran & Riordan 1990

Sequence of streptavidin (P22629 25-183): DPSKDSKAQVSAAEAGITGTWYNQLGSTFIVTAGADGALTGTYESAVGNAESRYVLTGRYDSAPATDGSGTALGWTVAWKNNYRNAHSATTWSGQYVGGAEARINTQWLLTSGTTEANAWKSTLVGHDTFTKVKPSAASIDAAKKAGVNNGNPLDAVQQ

O=C(O)CCCC[C@@H]1SC[C@@H]2NC(=O)N[C@@H]21 [biotin, cis-hexahydro-2oxo-1H-thieno [3,4]imidazole-4-pentanoic acid]
dissociation from streptavidin, times faster than dissociation from avidin: about 30 times
